“Also recorded” adds a separate entry of the source.
What was measured:
Format in all cases: physicochemical
Dynamic solubility test = settings: for dynamic solubility: room temperature, feeding concentration 10 mg/mL
Description: Determination method: According to a feeding concentration of 10 mg/mL, about 50 mg of the sample were weighed and added to 5 mL of the corresponding medium, and the sample was dissolved by rotating at […] at room temperature.

[1] = Solid storage stability test; settings: for chemical and physical stability after storage: solid/25° C./60% RH/open/1 week and/or solid/60° C./closed container/1 week
Description: Each amorphous salt solid was weighed (two 2 mg samples were weighed for purity testing after solid storage stability study, and one 10 mg sample was weighed for XRPD testing after solid storage stability study) and placed in a glass vial. In a 25° C./60% RH solid storage stability test, the amorphous salt solid was placed in a 25° C./60% RH constant temperature and humidity chamber, and placed in the dark for 1 week (i.e. “solid/25° C./60% RH/open/1 week”), and in a 60° C. solid storage stability test, the amorphous salt solid was sealed in an oven at 60° C. and heated for 1 week in the dark (i.e. “solid/60° C./closed container/1 week”). Then the sample was taken out for purity testing, crystal form detection and appearance observation, respectively.

[2] = Solid solubility test (2 h and 24 h); settings: for Solubility measured at 2 h: 37° C., based on free base
Description: 5 samples were weighed for each amorphous salt solid (equivalent to 20 mg of free base), and 10 mL of the following solvents were respectively added: 0.1N HCl solution (pH 1.0), 50 mM phosphate buffer (pH 4.5), FeSSIF-V1 (pH 5.0), FaSSIF-V1 (pH 6.5) and SGF (pH 2.0), and stirred at 37° C. for 2 h. The suspension was then centrifuged at 37° C., the supernatant was measured for solubility by HPLC, and the solid fraction was measured for XRPD. The target solubility was at least 2 mg (based on free base)/mL.

[3] = Test BS1: solid/25° C./60% RH/open/1 week
[4] = Test BS2: solid/60° C./closed container/1 week

## C=CC(=O)Nc1cc(Nc2ncnc(-c3cn(C)c4ccccc34)n2)c(OC)cc1N(C)CCN(C)C [Example 24]
Dynamic solubility test; FaSSIF, 0.5 h, listed as crystaline form IV-C of maleate salt
  dynamic solubility: 6100 µg/mL
Dynamic solubility test; FaSSIF, 1 h, listed as crystaline form IV-C of maleate salt
  dynamic solubility: 6200 µg/mL
Dynamic solubility test; SGF, 0.5 h, listed as crystaline form IV-C of maleate salt
  dynamic solubility: >10000 µg/mL
Dynamic solubility test; SGF, 1 h, listed as crystaline form IV-C of maleate salt
  dynamic solubility: >10000 µg/mL
Dynamic solubility test; SGF, 2 h, listed as crystaline form IV-C of maleate salt
  dynamic solubility: >10000 µg/mL
Dynamic solubility test; SGF, 4 h, listed as crystaline form IV-C of maleate salt
  dynamic solubility: >10000 µg/mL
Dynamic solubility test; SGF, 24 h, listed as crystaline form IV-C of maleate salt
  dynamic solubility: >10000 µg/mL

## C=CC(=O)Nc1cc(Nc2ncnc(-c3cn(C)c4ccccc34)n2)c(OC)cc1N(C)CCN(C)C [Example 9]
[1]; [3]
  Color: slight color change
  Morphology (XRPD crystallinity): amorphous (FIG. 101),
  Morphology (agglomeration, appearance): agglomeration (FIG. 102)
[1]; [4]
  Color: no color change
  Morphology (XRPD crystallinity): low crystallinity
[1]; listed as 1 eq. maleate salt
  chemical and physical stability after storage: chemically unstable; also recorded: physically unstable
[1]; listed as amorphous 1 eq. maleate salt
  chemical and physical stability after storage: chemically unstable; also recorded: physically unstable
[1]; solid/25° C./60% RH/open/1 week, listed as amorphous 1 eq. maleate salt
  physical and chemical stability (in words): slight color change and showed a certain hygroscopicity (agglomeration)
[1]; solid/60° C./closed container/1 week, listed as amorphous 1 eq. maleate salt
  physical and chemical stability (in words): transformed from amorphous to a low crystallinity
[2]; Test ES4: FaSSIF-V1 (pH 6.5)
  pH measured at 2 h: (6.1)
  Solubility measured at 2 h: >2 mg/mL

## C=CC(=O)Nc1cc(Nc2ncnc(-c3cn(C)c4ccccc34)n2)c(OC)cc1N(C)CCN(C)C [Example 23]
Dynamic solubility test; FaSSIF, 0.5 h, listed as crystaline form III-A of hydrochloride salt
  dynamic solubility: 5300 µg/mL
Dynamic solubility test; FaSSIF, 1 h, listed as crystaline form III-A of hydrochloride salt
  dynamic solubility: 5200 µg/mL
Dynamic solubility test; FaSSIF, 2 h, listed as crystaline form III-A of hydrochloride salt
  dynamic solubility: 5000 µg/mL
Dynamic solubility test; FaSSIF, 4 h, listed as crystaline form III-A of hydrochloride salt
  dynamic solubility: 5000 µg/mL
Dynamic solubility test; FaSSIF, 24 h, listed as crystaline form III-A of hydrochloride salt
  dynamic solubility: 8200 µg/mL
Dynamic solubility test; SGF, 0.5 h, listed as crystaline form III-A of hydrochloride salt
  dynamic solubility: >10000 µg/mL
Dynamic solubility test; SGF, 1 h, listed as crystaline form III-A of hydrochloride salt
  dynamic solubility: >10000 µg/mL
Dynamic solubility test; SGF, 2 h, listed as crystaline form III-A of hydrochloride salt
  dynamic solubility: >10000 µg/mL
Dynamic solubility test; SGF, 4 h, listed as crystaline form III-A of hydrochloride salt
  dynamic solubility: >10000 µg/mL
Dynamic solubility test; SGF, 24 h, listed as crystaline form III-A of hydrochloride salt
  dynamic solubility: >10000 µg/mL

## C=CC(=O)Nc1cc(Nc2ncnc(-c3cn(C)c4ccccc34)n2)c(OC)cc1N(C)CCN(C)C [Example 10]
[1]; [3]
  Color: no color change
  Morphology (XRPD crystallinity): no crystal form
[1]; [4]
  Color: no color change
  Morphology (XRPD crystallinity): no crystal form
[1]; listed as 1 eq. hydrobromide salt
  chemical and physical stability after storage: chemically and physically stable
[1]; listed as crystalline 1 eq. hydrobromide salt
  chemical and physical stability after storage: chemically and physically stable
[1]; solid/25° C./60% RH/open/1 week, listed as crystalline 1 eq. hydrobromide salt
  physical and chemical stability (in words): good physical and chemical stability
[1]; solid/60° C./closed container/1 week, listed as crystalline 1 eq. hydrobromide salt
  physical and chemical stability (in words): good physical and chemical stability
[2]; Test ES4: FaSSIF-V1 (pH 6.5)
  XRPD measured at 2 h (solid fraction): hydrobromide
  pH measured at 2 h: (6.4)
[2]; Test ES5: SGF (pH 2.0)
  Solubility measured at 2 h: >2 mg/ml mg/mL

## C=CC(=O)Nc1cc(Nc2ncnc(-c3cn(C)c4ccccc34)n2)c(OC)cc1N(C)CCN(C)C [Example 22]
Dynamic solubility test; FaSSIF, 0.5 h, listed as crystaline form II-A of mesylate salt
  dynamic solubility: 6600 µg/mL
Dynamic solubility test; FaSSIF, 1 h, listed as crystaline form II-A of mesylate salt
  dynamic solubility: 6200 µg/mL
Dynamic solubility test; FaSSIF, 2 h, listed as crystaline form II-A of mesylate salt
  dynamic solubility: 7000 µg/mL
Dynamic solubility test; FaSSIF, 4 h, listed as crystaline form II-A of mesylate salt
  dynamic solubility: 6900 µg/mL
Dynamic solubility test; FaSSIF, 24 h, listed as crystaline form II-A of mesylate salt
  dynamic solubility: 9900 µg/mL
Dynamic solubility test; SGF, 0.5 h, listed as crystaline form II-A of mesylate salt
  dynamic solubility: >10000 µg/mL
Dynamic solubility test; SGF, 1 h, listed as crystaline form II-A of mesylate salt
  dynamic solubility: >10000 µg/mL
Dynamic solubility test; SGF, 2 h, listed as crystaline form II-A of mesylate salt
  dynamic solubility: >10000 µg/mL
Dynamic solubility test; SGF, 4 h, listed as crystaline form II-A of mesylate salt
  dynamic solubility: >10000 µg/mL
Dynamic solubility test; SGF, 24 h, listed as crystaline form II-A of mesylate salt
  dynamic solubility: >10000 µg/mL
Dynamic solubility test; water, SGF, FaSSIF and FeSSIF, thermodynamic from solid, water, SGF, FaSSIF and FeSSIF, all time points, read-out: dynamic solubility in water, SGF, FaSSIF and FeSSIF (conclusion)
  solubility: > 4000 µg/mL

## C=CC(=O)Nc1cc(Nc2ncnc(-c3cn(C)c4ccccc34)n2)c(OC)cc1N(C)CCN(C)C [Example 8]
[1]; [3]
  Color: no color change
[1]; [4]
  Color: no color change
  Morphology (XRPD crystallinity): amorphous (FIG. 100),
  Morphology (agglomeration, appearance): no agglomeration
[1]; listed as 1 eq. esylate salt
  chemical and physical stability after storage: physically unstable
[1]; listed as amorphous 1 eq. esylate salt
  chemical and physical stability after storage: physically unstable
[1]; solid/25° C./60% RH/open/1 week, listed as amorphous 1 eq. esylate salt
  physical and chemical stability (in words): significant hygroscopicity (caking and fusion to a glassy state)
[1]; solid/60° C./closed container/1 week, listed as amorphous 1 eq. esylate salt
  physical and chemical stability (in words): good physical and chemical stability
[2]; Test ES4: FaSSIF-V1 (pH 6.5)
  pH measured at 2 h: (6.4)
  Solubility measured at 2 h: >2 mg/mL

## C=CC(=O)Nc1cc(Nc2ncnc(-c3cn(C)c4ccccc34)n2)c(OC)cc1N(C)CCN(C)C [Example 6]
[1]; [3]
  Morphology (XRPD crystallinity): amorphous (FIG. 96),
[1]; [4]
  Morphology (XRPD crystallinity): amorphous (FIG. 96),
[1]; listed as 1 eq. besylate salt
  chemical and physical stability after storage: chemically unstable
[1]; listed as amorphous 1 eq. besylate salt
  chemical and physical stability after storage: chemically unstable
[1]; solid/60° C./closed container/1 week, listed as amorphous 1 eq. besylate salt
  physical and chemical stability (in words): good physical and chemical stability

## C=CC(=O)Nc1cc(Nc2ncnc(-c3cn(C)c4ccccc34)n2)c(OC)cc1N(C)CCN(C)C [Example 7]
[1]; [3]
  Color: slight color change
[1]; [4]
  Color: no color change
  Morphology (XRPD crystallinity): amorphous (FIG. 98),
  Morphology (agglomeration, appearance): no agglomeration
[1]; listed as 2 eq. besylate salt
  chemical and physical stability after storage: physically unstable
[1]; listed as amorphous 2 eq. besylate salt
  chemical and physical stability after storage: physically unstable
[1]; solid/25° C./60% RH/open/1 week, listed as amorphous 2 eq. besylate salt
  physical and chemical stability (in words): slight color change and showed significant hygroscopicity (caking and fusion to a glassy state)
[1]; solid/60° C./closed container/1 week, listed as amorphous 2 eq. besylate salt
  physical and chemical stability (in words): good physical and chemical stability
[2]; Test ES4: FaSSIF-V1 (pH 6.5)
  pH measured at 2 h: (6.1)
  Solubility measured at 2 h: >2 mg/mL

From patent US20240391902A1, “Crystalline Form of Compound” (Shenzhen Forward Pharmaceuticals Co., Limited, priority 2020, published 2024)
